Assay results: ChEMBL document CHEMBL4828757, “Further hit optimization of 6-(trifluoromethyl)pyrimidin-2-amine based TLR8 modulators: Synthesis, biological evaluation and structure-activity relationships” (Eur J Med Chem, 2021)
pIC50: −log10 of the molar value. Calls of active or inactive are those of the source. No cut-off for these calls is given here.

Molecular target: T1, Toll-like receptor 8 (Homo sapiens) (UniProt Q9NR97)
T1 sequence (whole entry): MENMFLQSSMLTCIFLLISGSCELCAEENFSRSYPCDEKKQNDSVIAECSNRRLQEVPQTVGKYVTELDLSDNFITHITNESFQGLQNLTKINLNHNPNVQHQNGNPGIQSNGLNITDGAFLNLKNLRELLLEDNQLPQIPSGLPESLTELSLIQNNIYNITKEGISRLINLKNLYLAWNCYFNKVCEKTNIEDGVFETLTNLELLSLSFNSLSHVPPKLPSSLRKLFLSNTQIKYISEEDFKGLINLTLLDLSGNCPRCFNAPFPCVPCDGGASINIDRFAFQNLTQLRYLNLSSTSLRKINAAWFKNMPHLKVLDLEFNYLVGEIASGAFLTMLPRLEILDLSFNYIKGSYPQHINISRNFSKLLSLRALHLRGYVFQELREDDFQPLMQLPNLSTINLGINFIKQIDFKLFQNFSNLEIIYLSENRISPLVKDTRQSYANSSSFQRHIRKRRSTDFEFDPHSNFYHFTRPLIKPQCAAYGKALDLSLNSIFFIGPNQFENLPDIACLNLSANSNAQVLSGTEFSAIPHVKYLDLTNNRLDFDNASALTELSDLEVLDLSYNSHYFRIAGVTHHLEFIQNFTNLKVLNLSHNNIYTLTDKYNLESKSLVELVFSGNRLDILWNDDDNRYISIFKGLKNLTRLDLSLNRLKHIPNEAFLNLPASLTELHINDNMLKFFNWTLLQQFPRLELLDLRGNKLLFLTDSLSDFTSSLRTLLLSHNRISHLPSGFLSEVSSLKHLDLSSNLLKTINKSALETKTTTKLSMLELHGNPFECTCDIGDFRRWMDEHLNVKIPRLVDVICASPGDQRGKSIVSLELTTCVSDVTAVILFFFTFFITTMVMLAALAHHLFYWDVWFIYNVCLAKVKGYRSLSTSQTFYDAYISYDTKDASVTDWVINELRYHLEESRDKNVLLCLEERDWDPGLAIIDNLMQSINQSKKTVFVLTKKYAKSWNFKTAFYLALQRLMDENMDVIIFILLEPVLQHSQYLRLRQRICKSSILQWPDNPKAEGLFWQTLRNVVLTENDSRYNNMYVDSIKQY
Experiment: Negative modulator activity at human TLR8 expressed in HEK-Blue hTLR8 cells assessed as inhibition of TL8-506 stimulated NF-kappaB activation at 25 uM preincubated with compound for 1 hr followed by TL8-506 stimulation for 24 hrs by SEAP-based colorimetric assay
Format: cell-based
Details: filed as modulator, time 25.0 hrs

Question: Which inhibition does the source give for `NCc1ccc(CNc2nc(-c3ccco3)cc(C(F)(F)F)n2)cc1` here?
Answer: 75%

Question: Which inhibition does the source give for `NCc1cccc(CNc2nc(-c3ccco3)cc(C(F)(F)F)n2)c1` here?
Answer: 50%

Question: Which inhibition does the source give for `FC(F)(F)c1cc(-c2ccccc2)nc(NCc2cccs2)n1` here?
Answer: 60%

Tested on: not listed separately
Experiment: Cytotoxicity against human PBMC cells assessed as reduction in cell viability at 10 uM incubated for 48 hrs by MTS assay
Format: cell-based
Details: not given

Question: For `CS(=O)(=O)c1nc(-c2ccco2)cc(C(F)(F)F)n1`, which Activity is on record?
Answer: Toxic

Tested on: not listed separately
Experiment: Cytotoxicity against human HEK-Blue hTLR8 cells assessed as reduction in cell viability at 50 uM by MTT assay
Format: cell-based
Details: HEK-Blue hTLR8 cells, read-out: INH

Question: With `FC(F)(F)c1cc(-c2ccccc2)nc(NCc2cccs2)n1` as the compound, how does the cytotoxicity at 50 µM read?
Answer: 40%

Same assay, conditions: hek-blue htlr8, 50 µM

Question: With `NCc1ccc(CNc2nc(-c3ccco3)cc(C(F)(F)F)n2)cc1` as the compound, how does the Activity read?
Answer: Toxic

Question: With `NCc1cccc(CNc2nc(-c3ccco3)cc(C(F)(F)F)n2)c1` as the compound, how does the Activity read?
Answer: Toxic

Molecular target: T2, Toll-like receptor 8 (Homo sapiens, UniProt Q9NR97)
T2 sequence (Q9NR97 whole entry): T1 sequence (whole entry)
Experiment: (§1) Negative modulator activity at human TLR8 expressed in HEK-Blue hTLR8 cells assessed as inhibition of TL8-506 stimulated NF-kappaB activation preincubated with compound for 1 hr followed by TL8-506 stimulation for 24 hrs by SEAP-based colorimetric assay
Format: cell-based
Details: hek-blue htlr8

Question: Which IC50 does the source give for `Oc1cccc(CNc2nc(-c3ccccc3)cc(C(F)(F)F)n2)c1` here?
Answer: Not Active

Question: For `COc1cccc(CNc2nc(-c3ccco3)cc(C(F)(F)F)n2)c1`, which IC50 is on record?
Answer: Not Active

Question: With `OCc1cccc(CNc2nc(-c3ccco3)cc(C(F)(F)F)n2)c1` as the compound, how does the IC50 read?
Answer: Not Active

Question: With `COc1ccc(CNc2nc(-c3ccco3)cc(C(F)(F)F)n2)cc1` as the compound, how does the IC50 read?
Answer: Not Active

Question: With `CS(=O)(=O)c1nc(-c2ccccc2)cc(C(F)(F)F)n1` as the compound, how does the IC50 read?
Answer: Not Active

Question: Which IC50 does the source give for `O=C(O)c1ccc(CNc2nc(-c3ccco3)cc(C(F)(F)F)n2)cc1` here?
Answer: Not Active

Same assay, conditions: read-out: IC50

Question: With `Oc1cccc(CNc2nc(-c3ccco3)cc(C(F)(F)F)n2)c1` as the compound, how does the pIC50 read?
Answer: 4.64

Question: With `Oc1ccc(CNc2nc(-c3ccco3)cc(C(F)(F)F)n2)cc1` as the compound, how does the pIC50 read?
Answer: 4.96

Question: With `FC(F)(F)c1cc(-c2ccco2)nc(Nc2ccccc2)n1` as the compound, how does the pIC50 read?
Answer: 4.11

Question: With `Oc1cccc(CNc2nc(C3CCCCC3)cc(C(F)(F)F)n2)c1` as the compound, how does the pIC50 read?
Answer: 4.66

Question: With `FC(F)(F)c1cc(-c2ccco2)nc(NCc2ccccc2)n1` as the compound, how does the pIC50 read?
Answer: < 4.00

Question: With `FC(F)(F)c1cc(-c2ccco2)nc(NCCc2ccccc2)n1` as the compound, how does the pIC50 read?
Answer: < 4.00

Molecular target: T1, Toll-like receptor 8 (Homo sapiens)
Experiment: as §1
Format: cell-based
Details: filed as modulator, time 25.0 hrs

Question: For `Cc1ccc(-c2cc(C(F)(F)F)nc(NCc3cccs3)n2)cc1`, which inhibition is on record?
Answer: Active

Question: For `Cc1cc(-c2ccco2)nc(NCc2cccs2)n1`, which inhibition is on record?
Answer: Active

Question: With `COc1ccc(-c2cc(C(F)(F)F)nc(NCc3cccs3)n2)cc1` as the compound, how does the inhibition read?
Answer: Active

Same assay, conditions: time 25.0 hrs

Question: For `FC(F)(F)c1cc(-c2ccco2)nc(NC2CCCCC2)n1`, which inhibition is on record?
Answer: inactive

Question: Which inhibition does the source give for `FC(F)(F)c1cc(-c2ccco2)nc(NCC2CC2)n1` here?
Answer: inactive

Question: With `FC(F)(F)c1cc(-c2ccco2)nc(NC2CCC2)n1` as the compound, how does the inhibition read?
Answer: inactive

Question: Which inhibition does the source give for `CCCNc1nc(-c2ccco2)cc(C(F)(F)F)n1` here?
Answer: inactive

Question: Which inhibition does the source give for `FC(F)(F)c1cc(-c2ccco2)ncn1` here?
Answer: inactive

Question: Which inhibition does the source give for `Cc1cc(C(F)(F)F)nc(NCc2cccs2)n1` here?
Answer: inactive

Question: With `FC(F)(F)c1cc(-c2ccco2)nc(NC2CCCC2)n1` as the compound, how does the inhibition read?
Answer: inactive

Question: With `FC(F)(F)c1ccnc(NCc2cccs2)n1` as the compound, how does the inhibition read?
Answer: inactive

Question: Which inhibition does the source give for `CCNc1nc(-c2ccco2)cc(C(F)(F)F)n1` here?
Answer: inactive

Question: With `FC(F)(F)c1cc(C2CCCCC2)nc(NCc2cccs2)n1` as the compound, how does the inhibition read?
Answer: inactive

Question: For `CCCCCCNc1nc(-c2ccco2)cc(C(F)(F)F)n1`, which inhibition is on record?
Answer: inactive

Question: With `OCCOCCNc1nc(-c2ccco2)cc(C(F)(F)F)n1` as the compound, how does the inhibition read?
Answer: inactive

Question: With `OCCNc1nc(-c2ccco2)cc(C(F)(F)F)n1` as the compound, how does the inhibition read?
Answer: inactive

Question: With `FC(F)(F)c1cc(-c2ccco2)nc(NC2CC2)n1` as the compound, how does the inhibition read?
Answer: inactive

Question: Which inhibition does the source give for `FC(F)(F)c1cc(-c2ccco2)nc(NCCN2CCOCC2)n1` here?
Answer: inactive

Question: With `CCCCNc1nc(-c2ccco2)cc(C(F)(F)F)n1` as the compound, how does the inhibition read?
Answer: inactive

Question: Which inhibition does the source give for `CC(C)CNc1nc(-c2ccco2)cc(C(F)(F)F)n1` here?
Answer: inactive

Question: With `c1coc(-c2ccnc(NCc3cccs3)n2)c1` as the compound, how does the inhibition read?
Answer: inactive

Question: For `C=CCNc1nc(-c2ccco2)cc(C(F)(F)F)n1`, which inhibition is on record?
Answer: inactive

Question: For `CC(C)Nc1nc(-c2ccco2)cc(C(F)(F)F)n1`, which inhibition is on record?
Answer: inactive

Tested on: not listed separately
Experiment: Cytotoxicity against human PBMC cells assessed as reduction in cell viability up to 50 uM incubated for 48 hrs by MTS assay
Format: cell-based
Details: not given

Question: For `OCc1ccc(CNc2nc(-c3ccco3)cc(C(F)(F)F)n2)cc1`, which Activity is on record?
Answer: Non-Toxic

Molecular target: T1, Toll-like receptor 8 (Homo sapiens)
Experiment: Negative modulator activity at human TLR8 expressed in HEK-Blue hTLR8 cells assessed as inhibition of TL8-506 stimulated NF-kappaB activation at 10 uM preincubated with compound for 1 hr followed by TL8-506 stimulation for 24 hrs by SEAP-based colorimetric assay
Format: cell-based
Details: filed as modulator, time 25.0 hrs

Question: With `FC(F)(F)c1cc(-c2ccccc2)nc(NCc2cccs2)n1` as the compound, how does the inhibition read?
Answer: 50%
